Assay results published in patent US20160038449A1, “MULTI-COMPONENT PHARMACEUTICALS FOR TREATING DIABETES” (Complexa, Inc., priority 2010, published 2016).

Key:
[1] = system: WT mice; assay: Blood glucose level of fed WT mice after administration; assay type: in vivo; conditions: for blood glucose level: fed WT mice, level maintained over the study (FIG. 1), vehicle control about 170 mg/dL
Protocol: Oleic acid, nitro-oleic acid, rosiglitazone, or a vehicle control were administered to fed WT mice, and the blood glucose level of these mice was monitored.

[2] = system: ob/ob mice; assay: Blood glucose level of ob/ob mice after administration; assay type: in vivo; conditions: ob/ob mice (FIG. 2)
From the text: Similar results are observed in experiments involving ob/ob mice.

[3] = parameters: species or system mice; conditions: mouse, in vivo
Protocol: In addition to reducing blood glucose levels, substantially no increase in body weight was observed when nitro-oleic acid is administered to mice as compared to mice administered a vehicle control, oleic acid, or rosiglitazone.

[4] = system: WT mice; assay: Insulin sensitivity: blood glucose after administration of insulin in WT mice; assay type: in vivo; conditions: 120 minute time course (FIG. 5)
[5] = system: ob/ob mice; assay: Insulin sensitivity: blood glucose after administration of insulin in ob/ob mice; assay type: in vivo; conditions: 120 minute time course (FIG. 6)

Compound | blood glucose level [1] | change of blood glucose level over the course of the study [2] | change of body weight over the course of the study [3] | blood glucose levels after administration of insulin [4] | blood glucose levels after administration of insulin [5] | change of blood glucose level over the course of the study ([1]; fed WT mice (FIG. 1))
9- or 10-nitro octadecenoic acid [nitro-oleic acid] | about 125 mg/dL | effectively reduced the blood glucose level over the course of the study | initially decreased (days 0-10), and then remained substantially constant over the second half of the study | initial drop in blood glucose levels after administration of insulin followed by an increase in blood glucose back to normal levels about 120 minutes after the administration of insulin | substantial decrease in blood glucose levels over the course of the 120 minute time period | 
CCCCCCCC/C=C\CCCCCCCC(=O)O [oleic acid] |  | increased blood glucose level over the course of the study | steady increase in body weight over the course of the study |  | increased over the 120 minute time course | increased blood glucose levels over the course of the study
CN(CCOc1ccc(CC2SC(=O)NC2=O)cc1)c1ccccn1 (centres unmarked) [rosiglitazone] | about 150 mg/dL |  | steady increase in body weight over the course of the study |  |  | 
